Laboratory results taken from patent US20080286809A1, “Methods” (MEDICAL RESEARCH COUNCIL, priority 2005, published 2008).

Biological target: T1, WNK1 (Homo sapiens, UniProt Q9H4A3)
T1 construct: made in house
Test: ELISA assay for inhibitors of WNK activity: anti-phospho-SPAK-S373 detection of OSR1(D164A) phosphorylation
Assay type: biochemical
Conditions: non-radioactive ELISA; immobilised OSR1(D164A) substrate; anti-phospho-SPAK-S373 antibody; absorbance readout; read-out: IC50, Hypericin Inhibition of WNK1
Procedure: An example of a non-radioactive assay, suitable for screening of small drug-like compound libraries, has been developed using anti-phospho-SPAK antibodies to detect phosphorylation of WNK substrates SPAK or OSR1 in an ELISA format.
Anti-phospho-SPAK-S373 and anti-phospho-SPAK-T233 were anti-phospho-peptide antibodies raised in sheep for use in western blotting. They were evaluated for use in the ELISA format. Anti-phospho-SPAK-S373 was active in the ELISA with native OSR1 protein. SPAK and OSR1 are interchangeable in the assay as the amino acid sequences are very similar overall and have the same sequence flanking the phosphorylation sites. […] Wild type OSR1 had significant autophosphorylation/ATP hydrolytic activity, and could lead to depletion of substrates during the time course of the reaction.
The assay was performed in maxisorp (Nunc) 384-clear plates. OSR1(D164A), 30 ng/well, was coated overnight at 4° C. in Tris buffered saline (TBS) pH 7.4. […] Plates were read on an absorbance reader at […]. […]
The assay was tolerant to a wide range of ATP concentrations (1-1000 μM) and 1% DMSO (compound storage solvent). Compound interference by autofluorescence, quenching or absorbance is minimised as it is heterogeneous involving several wash steps. […]

T1 sequence (Q9H4A3 whole entry): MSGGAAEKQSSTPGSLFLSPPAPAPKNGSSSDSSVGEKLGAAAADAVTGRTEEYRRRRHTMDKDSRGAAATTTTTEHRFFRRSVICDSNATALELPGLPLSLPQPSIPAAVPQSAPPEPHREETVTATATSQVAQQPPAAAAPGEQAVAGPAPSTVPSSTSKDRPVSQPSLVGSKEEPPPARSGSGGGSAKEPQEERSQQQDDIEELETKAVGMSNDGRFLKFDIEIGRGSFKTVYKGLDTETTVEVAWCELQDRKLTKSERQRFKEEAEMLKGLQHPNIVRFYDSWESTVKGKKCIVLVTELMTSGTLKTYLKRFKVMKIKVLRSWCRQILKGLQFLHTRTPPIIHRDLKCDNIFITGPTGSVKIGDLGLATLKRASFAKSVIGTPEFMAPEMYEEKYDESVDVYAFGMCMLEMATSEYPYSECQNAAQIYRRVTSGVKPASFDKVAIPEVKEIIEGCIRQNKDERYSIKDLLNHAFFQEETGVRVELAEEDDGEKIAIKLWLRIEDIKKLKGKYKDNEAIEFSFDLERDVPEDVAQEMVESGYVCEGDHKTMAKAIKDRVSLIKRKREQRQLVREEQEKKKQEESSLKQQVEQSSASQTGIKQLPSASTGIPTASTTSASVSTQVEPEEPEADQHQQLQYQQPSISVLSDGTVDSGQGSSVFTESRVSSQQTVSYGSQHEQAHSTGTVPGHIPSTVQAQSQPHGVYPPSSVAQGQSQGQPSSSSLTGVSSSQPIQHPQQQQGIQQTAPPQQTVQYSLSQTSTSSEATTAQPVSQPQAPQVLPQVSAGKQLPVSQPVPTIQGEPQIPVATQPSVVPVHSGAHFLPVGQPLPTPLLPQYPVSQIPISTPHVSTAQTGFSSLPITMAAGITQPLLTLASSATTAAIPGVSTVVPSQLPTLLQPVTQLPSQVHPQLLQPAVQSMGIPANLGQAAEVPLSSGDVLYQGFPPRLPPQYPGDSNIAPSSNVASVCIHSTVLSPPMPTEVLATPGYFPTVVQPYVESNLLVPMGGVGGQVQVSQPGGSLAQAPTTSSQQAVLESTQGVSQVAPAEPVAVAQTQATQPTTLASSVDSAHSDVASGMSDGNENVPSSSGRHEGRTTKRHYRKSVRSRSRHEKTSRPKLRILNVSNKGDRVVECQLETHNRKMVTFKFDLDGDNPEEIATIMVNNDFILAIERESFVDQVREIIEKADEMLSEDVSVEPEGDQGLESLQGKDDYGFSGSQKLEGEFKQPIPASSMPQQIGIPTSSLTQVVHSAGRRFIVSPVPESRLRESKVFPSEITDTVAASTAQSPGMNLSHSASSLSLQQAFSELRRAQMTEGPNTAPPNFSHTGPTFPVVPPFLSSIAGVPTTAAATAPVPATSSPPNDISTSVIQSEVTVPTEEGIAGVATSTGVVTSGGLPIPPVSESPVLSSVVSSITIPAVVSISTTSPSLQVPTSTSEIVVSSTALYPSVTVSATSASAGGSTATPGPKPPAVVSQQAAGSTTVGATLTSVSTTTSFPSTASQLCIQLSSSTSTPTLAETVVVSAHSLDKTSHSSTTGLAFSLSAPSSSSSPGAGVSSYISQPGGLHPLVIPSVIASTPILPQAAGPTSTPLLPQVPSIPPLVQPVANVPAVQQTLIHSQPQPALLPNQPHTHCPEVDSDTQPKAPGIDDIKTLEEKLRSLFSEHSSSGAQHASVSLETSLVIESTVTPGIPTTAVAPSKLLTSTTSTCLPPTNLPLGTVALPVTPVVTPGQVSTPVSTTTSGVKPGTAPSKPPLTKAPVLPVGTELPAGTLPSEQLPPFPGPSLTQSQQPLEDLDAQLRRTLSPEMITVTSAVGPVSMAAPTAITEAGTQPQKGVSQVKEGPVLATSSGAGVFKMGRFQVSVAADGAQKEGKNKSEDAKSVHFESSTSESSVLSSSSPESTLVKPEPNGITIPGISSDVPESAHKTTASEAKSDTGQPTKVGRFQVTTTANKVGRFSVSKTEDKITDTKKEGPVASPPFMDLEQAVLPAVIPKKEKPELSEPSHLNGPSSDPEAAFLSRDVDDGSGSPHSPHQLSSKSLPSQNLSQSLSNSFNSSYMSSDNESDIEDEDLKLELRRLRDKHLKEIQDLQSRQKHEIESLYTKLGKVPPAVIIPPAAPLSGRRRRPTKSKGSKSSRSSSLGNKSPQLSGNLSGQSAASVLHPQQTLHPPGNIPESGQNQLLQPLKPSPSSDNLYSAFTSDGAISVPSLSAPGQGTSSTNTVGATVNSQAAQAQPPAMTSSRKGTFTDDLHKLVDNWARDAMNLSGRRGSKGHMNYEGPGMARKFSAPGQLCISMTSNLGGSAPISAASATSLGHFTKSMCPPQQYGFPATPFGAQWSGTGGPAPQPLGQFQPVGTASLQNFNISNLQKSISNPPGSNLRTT

Compound: Cc1cc(O)c2c(=O)c3c(O)cc(O)c4c5c(O)cc(O)c6c(=O)c7c(O)cc(C)c8c1c2c(c34)c(c78)c65 [Hypericin]
- IC50: 1500 nM
